Reference: ChEMBL document CHEMBL3885881, “DrugMatrix”

Species: Rattus norvegicus
Assay: DrugMatrix - Regimen: Daily Repeat
Format: toxicity, organism-based, Sprague-Dawley
Parameters: regimen Daily Repeat, gender Male, age 6-8 weeks
Settings: in vivo, iv, vehicle 100 % SALINE; for ABSOLUTE BASOPHIL / ABSOLUTE EOSINOPHIL / ABSOLUTE LYMPHOCYTE / ABSOLUTE MONOCYTE / ABSOLUTE SEGMENTED NEUTROPHIL / BASOPHIL / EOSINOPHIL / ERYTHROCYTE COUNT / HEMATOCRIT / HEMOGLOBIN / LEUKOCYTE COUNT / LYMPHOCYTE / MEAN CORPUSCULAR HEMOGLOBIN / MEAN CORPUSCULAR HEMOGLOBIN CONCENTRATION / MEAN CORPUSCULAR VOLUME / MONOCYTE / NEUTROPHIL / NUCLEATED RED BLOOD CELLS / PLATELET COUNT: tissue Blood; for ALANINE AMINOTRANSFERASE / ALBUMIN / ALKALINE PHOSPHATASE / ASPARTATE AMINOTRANSFERASE / BLOOD UREA NITROGEN / CARBON DIOXIDE / CHLORIDE / CHOLESTEROL / CREATINE PHOSPHOKINASE / CREATININE / GLUCOSE / LACTATE DEHYDROGENASE / LIPASE / PHOSPHORUS / POTASSIUM / SODIUM / TOTAL BILIRUBIN / TOTAL PROTEIN / URIC ACID: tissue Plasma
[1] = 3 mg/kg, 120 h, dose level Low, time 5 day
[2] = 54 mg/kg, 72 h, dose level High, time 3 day
[3] = 54 mg/kg, 120 h, dose level High, time 5 day

## O=c1[nH]c(=O)n([C@H]2C[C@H](O)[C@@H](CO)O2)cc1F [FLOXURIDINE]
[1]
  ABSOLUTE BASOPHIL: 0 CELLS/uL
  ABSOLUTE EOSINOPHIL: 0 CELLS/uL
  ABSOLUTE LYMPHOCYTE: 11533 CELLS/uL
  ABSOLUTE MONOCYTE: 174 CELLS/uL
  ABSOLUTE SEGMENTED NEUTROPHIL: 693 CELLS/uL
  BASOPHIL: 0%
  EOSINOPHIL: 0%
  ERYTHROCYTE COUNT: 5.61 x10E6/uL
  HEMATOCRIT: 34.57%
  HEMOGLOBIN: 13.83 G/DL
  LEUKOCYTE COUNT: 12.4 x10E3/uL
  LYMPHOCYTE: 93%
  MEAN CORPUSCULAR HEMOGLOBIN: 24.7 pg
  MEAN CORPUSCULAR HEMOGLOBIN CONCENTRATION: 40.03 G/DL
  MEAN CORPUSCULAR VOLUME: 61.73 fL
  MONOCYTE: 1.33%
  NEUTROPHIL: 5.67%
  NUCLEATED RED BLOOD CELLS: 0 /100WBC
  PLATELET COUNT: 883.33 x10E3/uL
  ALANINE AMINOTRANSFERASE: 53.33 u/L
  ALBUMIN: 4.33 G/DL
  ALKALINE PHOSPHATASE: 392.33 u/L
  ASPARTATE AMINOTRANSFERASE: 95.67 u/L
  BLOOD UREA NITROGEN: 18.67 mg/dL
  CARBON DIOXIDE: 26.33 mmol/L
  CHLORIDE: 102 MEQ/L
  CHOLESTEROL: 64.67 mg/dL
  CREATINE PHOSPHOKINASE: 328 u/L
  CREATININE: 0.28 mg/dL
  GLUCOSE: 167.33 mg/dL
  LACTATE DEHYDROGENASE: 433.67 u/L
  LIPASE: 10.33 u/L
  PHOSPHORUS: 11.63 mg/dL
  POTASSIUM: 6.75 MEQ/L
  SODIUM: 142.7 MEQ/L
  TOTAL BILIRUBIN: 0.23 mg/dL
  TOTAL PROTEIN: 5.93 G/DL
  URIC ACID: 1.83 mg/dL
[2]
  ABSOLUTE BASOPHIL: 0 CELLS/uL
  ABSOLUTE EOSINOPHIL: 0 CELLS/uL
  ABSOLUTE LYMPHOCYTE: 10754.33 CELLS/uL
  ABSOLUTE MONOCYTE: 75.67 CELLS/uL
  ABSOLUTE SEGMENTED NEUTROPHIL: 703.33 CELLS/uL
  BASOPHIL: 0%
  EOSINOPHIL: 0%
  ERYTHROCYTE COUNT: 5.48 x10E6/uL
  HEMATOCRIT: 33.43%
  HEMOGLOBIN: 13.3 G/DL
  LEUKOCYTE COUNT: 11.53 x10E3/uL
  LYMPHOCYTE: 93.33%
  MEAN CORPUSCULAR HEMOGLOBIN: 24.33 pg
  MEAN CORPUSCULAR HEMOGLOBIN CONCENTRATION: 39.83 G/DL
  MEAN CORPUSCULAR VOLUME: 61.17 fL
  MONOCYTE: 0.67%
  NEUTROPHIL: 6%
  NUCLEATED RED BLOOD CELLS: 0 /100WBC
  PLATELET COUNT: 1073.67 x10E3/uL
  ALANINE AMINOTRANSFERASE: 48.33 u/L
  ALBUMIN: 4.13 G/DL
  ALKALINE PHOSPHATASE: 268 u/L
  ASPARTATE AMINOTRANSFERASE: 81.67 u/L
  BLOOD UREA NITROGEN: 19 mg/dL
  CARBON DIOXIDE: 28.67 mmol/L
  CHLORIDE: 103.33 MEQ/L
  CHOLESTEROL: 68.33 mg/dL
  CREATINE PHOSPHOKINASE: 307.67 u/L
  CREATININE: 0.18 mg/dL
  GLUCOSE: 150.67 mg/dL
  LACTATE DEHYDROGENASE: 152.33 u/L
  LIPASE: 10.33 u/L
  PHOSPHORUS: 9.83 mg/dL
  POTASSIUM: 5.66 MEQ/L
  SODIUM: 141.27 MEQ/L
  TOTAL BILIRUBIN: 0.2 mg/dL
  TOTAL PROTEIN: 5.67 G/DL
  URIC ACID: 1.2 mg/dL
[3]
  ABSOLUTE BASOPHIL: 0 CELLS/uL
  ABSOLUTE EOSINOPHIL: 0 CELLS/uL
  ABSOLUTE LYMPHOCYTE: 10553 CELLS/uL
  ABSOLUTE MONOCYTE: 101.33 CELLS/uL
  ABSOLUTE SEGMENTED NEUTROPHIL: 445.67 CELLS/uL
  BASOPHIL: 0%
  EOSINOPHIL: 0%
  ERYTHROCYTE COUNT: 4.83 x10E6/uL
  HEMATOCRIT: 31%
  HEMOGLOBIN: 12.7 G/DL
  LEUKOCYTE COUNT: 11.1 x10E3/uL
  LYMPHOCYTE: 95%
  MEAN CORPUSCULAR HEMOGLOBIN: 26.57 pg
  MEAN CORPUSCULAR HEMOGLOBIN CONCENTRATION: 41.07 G/DL
  MEAN CORPUSCULAR VOLUME: 64.57 fL
  MONOCYTE: 1%
  NEUTROPHIL: 4%
  NUCLEATED RED BLOOD CELLS: 0 /100WBC
  PLATELET COUNT: 1207.33 x10E3/uL
  ALANINE AMINOTRANSFERASE: 45 u/L
  ALBUMIN: 4.17 G/DL
  ALKALINE PHOSPHATASE: 347 u/L
  ASPARTATE AMINOTRANSFERASE: 84 u/L
  BLOOD UREA NITROGEN: 17.67 mg/dL
  CARBON DIOXIDE: 26.67 mmol/L
  CHLORIDE: 102.33 MEQ/L
  CHOLESTEROL: 52.67 mg/dL
  CREATINE PHOSPHOKINASE: 429.33 u/L
  CREATININE: 0.12 mg/dL
  GLUCOSE: 154 mg/dL
  LACTATE DEHYDROGENASE: 306 u/L
  LIPASE: 9.33 u/L
  PHOSPHORUS: 9.83 mg/dL
  POTASSIUM: 5.61 MEQ/L
  SODIUM: 142.1 MEQ/L
  TOTAL BILIRUBIN: 0.17 mg/dL
  TOTAL PROTEIN: 5.53 G/DL
  URIC ACID: 1.5 mg/dL
